Peptide text beside a SMILES is read from it.
How the values were obtained:
[1] = test system: Vero cells; assay: Methyl tetrazolium cytotoxicity assay, Vero cells; format: cell-based, African green monkey; conditions: confluent Vero cells, 24 h, 37°C
Procedure: (§1) Peptide cytotoxicity was determined using the methyl tetrazolium assay. Five-fold serial dilutions of peptides were added to confluent Vero or Vero/SLAM cells. Cells were then incubated at 37°C for 24 h, and the number of viable cells was determined using 3-(4,5-dimethyllthiazol-2-yl)-2,5-diphenylterazolium bromide (Sigma–Aldrich, Tokyo, Japan). The 50% cytotoxic concentration (CC50), which was defined as the concentration required to reduce the cell viability by 50% relative to that of untreated controls, was determined. The selectivity index (SI) was defined as the ratio of the CC50 relative to the EC50 value.

[2] = test system: SSPE Yamagata-1 strain; assay: Viral RNA quantification in whole brain of SSPE virus-infected nude mice; format: in vivo, BALB/cAJcl-nu/nu mice; conditions: day 14 post-infection; intracranial peptide; n = 5 per group; P < 0.05
Procedure: Mice were divided in three groups (n = 5 for each cage) and housed with free access to both water and food and monitored daily. Mice were infected with SSPE virus intracranially in the same as animal survival experiments. Euthanasia was performed by cervical dislocation under isoflurane anesthesia on day 14 post-infection. The brain of each mouse was immediately harvested and mechanically homogenized with 2 ml Vero/SLAM cell growth medium using a PRO200 handheld or post-mounted homogenizer (PRO Scientific Inc., CT, USA). The homogenized brains were stored at −80°C. Viral RNA was extracted using ISOGEN-LS, and cDNA was synthesized using a reverse transcription kit (PrimeScript RT-reagent kit). MV RNA was quantified using a TaqMan real-time polymerase chain reaction assay, as previously described. The primer and probe were designed based on the MV Edmonston strain N gene, as previously reported. PCR amplification was performed using a 7300 Real-Time PCR system (Applied Biosystem). The control plasmid was produced by Dragon Genomics Center (Takara Bio, Mie, Japan) based on the MV Edmonston strain N gene (position 1321–1500).

[3] = test system: MV Edmonston strain; assay: Viral plaque reduction assay, measles virus in Vero cells; format: cell-based; conditions: Vero cells
Procedure: (§2) African green monkey kidney (Vero) cells and Vero cells expressing human SLAM (Vero/SLAM cells) were used in all experiments. The growth medium for Vero cells comprised minimal essential medium (MEM) supplemented with 10% heat-inactivated newborn bovine serum, penicillin G (100 IU/ml), streptomycin (100 μg/ml), and L-glutamine (300 μg/ml). The same growth medium, which was further supplemented with G418 (400 μg/ml), was used for Vero/SLAM cells. Cells were seeded into the wells (22 mm) of 12-well tissue culture plates at 1 × 10^5 cells/well and incubated at 37°C in a 10% CO2 incubator for 3 days, at which time they had just reached confluence. The virus strains used were human MV Edmonston strain and SSPE Yamagata-1 [34], which was originally isolated from the brain of an SSPE patient. The Edmonston strain of MV was used to inoculate Vero/SLAM cells and harvested after freeze–thawing infected cells. The SSPE Yamagata-1 strain was cultured in Vero/SLAM cells, harvested by trypsinization, prepared as an infected cell suspension in the Vero/SLAM cell medium supplemented with 10% dimethyl sulfoxide, and stored at −80°C until use.
(§3) Screening was performed to evaluate the antiviral effects of each synthetic peptide against the MV and SSPE viruses using the viral plaque reduction assay. Based on the results of the peptide screening, the 50% effective concentration (EC50), i.e., the concentration of compounds required to inhibit virus plaque formation by 50%, was also determined. The Human MV Edmonston strain was used to produce cell-free virions, which yielded a reproducible number of syncytia [generally 200–300 plaque-forming units (PFUs)] in the control wells. The SSPE virus was also used to yield a reproducible number of syncytia (generally 70–150 PFU) in control wells. In the peptide screening assay, each synthetic peptide was used at a concentration of 10 μM. IFN-α and enfuvirtide, a peptide fusion inhibitor of HIV-1, were used as controls at a concentration of 250 IU/ml and 10 μM, respectively.

[4] = test system: SSPE virus; assay: Time-of-addition experiments, SSPE virus in Vero cells; format: cell-based, SSPE virus (variant measles virus)
Procedure: Synthetic peptides, M1 and M2EK (10 μM each) were used in time-of-addition experiments. Each peptide was added to Vero cells at three distinct time points: prior to infection (pretreatment with the compound), at the same time as the virus infection (simultaneous infection), or post-infection (post-entry). The SSPE virus was prepared to yield a reproducible number of syncytia in untreated control wells (approximately 50–100/well). In the pretreatment assay, peptide was added to confluent cells and incubated at 37°C for 30 min, and the cell cultures were washed with MEM before viral inoculation. Cells were then challenged with the SSPE virus at 0°C for 30 min. In the simultaneous infection assay, SSPE virus with peptide was inoculated at 0°C for 30 min. After the adsorption, the cell cultures were subsequently washed with MEM, and growth medium containing 0.75% methylcellulose was overlaid on the cell cultures, followed by incubation for 3 days in both pretreatment and simultaneous infection assays. In the post-entry assay, cells were challenged with the SSPE virus at 0°C for 30 min. After adsorption, the cell cultures were subsequently washed with MEM and peptide, which was prepared in growth medium containing 0.75% methylcellulose, was subsequently overlaid on the cell cultures at distinct time points. The starting point when cells were incubated at 0°C for 30 min was defined as t0.

[5] = test system: Vero/SLAM cells; assay: Methyl tetrazolium cytotoxicity assay, Vero/SLAM cells; format: cell-based, African green monkey; conditions: confluent Vero/SLAM cells, 24 h, 37°C
Procedure: as §1

[6] = test system: SSPE Yamagata-1 strain; assay: Animal survival experiment, SSPE virus-infected nude mouse model; format: in vivo, BALB/cAJcl-nu/nu mice; conditions: SSPE virus 250 PFU intracranial; peptide 100 μM intracranial at 0, 6 and 24 h; n = 6; control group 0%
Procedure: Based on a previous report, but with slight modifications, 3-week-old female BALB/cAJcl-nu/nu mice (CLEA Japan Inc., Tokyo, Japan) were used in the animal experiments. Mice were divided in four groups (n = 6 for each cage) and housed with free access to both water and food and monitored daily. The mice were SSPE virus-infected or mock-infected (MEM alone) intracranially. An SSPE virus-infected cell suspension containing 250 PFU/ 30 μl (100% lethal dose) was inoculated into the subarachnoid space of nude mice using a 27-gauge double needle at a depth of 2 mm. Each compound was prepared at a concentration of 100 μM and was injected intracranially at 0 (mixed with viruses), 6, and 24 h after the initial virus inoculation. All injections were performed under inhalational anesthesia with isoflurane. Each mouse was checked for neurological symptoms and weighed daily. The ethical endpoint was defined as <75% of their maximum weight because most mice would die within 24 h. On attaining this endpoint, the mice were sacrificed by cervical dislocation under inhalational anesthesia with isoflurane. In this experiment, five mice died of natural causes before the ethical endpoint; however, all mice had neurological symptoms and 9.5%, 13.2%,14.5%, 15.8%, 16.4% weight loss (one each) relative to their maximum weight. […]

[7] = test system: SSPE Yamagata-1 strain; assay: Viral plaque reduction assay, SSPE virus in Vero cells; format: cell-based, SSPE virus (variant measles virus)
Procedure: as §2, §3

[8] = test system: SSPE Yamagata-1 strain; assay: Viral plaque reduction assay, SSPE virus in Vero/SLAM cells; format: cell-based, SSPE virus (variant measles virus)
Procedure: as §2, §3

[9] = In vivo toxicity, mice administered peptides alone; design: species or system BALB/cAJcl-nu/nu mice; conditions: peptide 100 μM intracranial, no virus infection
Procedure: Based on a previous report, but with slight modifications, 3-week-old female BALB/cAJcl-nu/nu mice (CLEA Japan Inc., Tokyo, Japan) were used in the animal experiments. Mice were divided in four groups (n = 6 for each cage) and housed with free access to both water and food and monitored daily. The mice were SSPE virus-infected or mock-infected (MEM alone) intracranially. An SSPE virus-infected cell suspension containing 250 PFU/ 30 μl (100% lethal dose) was inoculated into the subarachnoid space of nude mice using a 27-gauge double needle at a depth of 2 mm. Each compound was prepared at a concentration of 100 μM and was injected intracranially at 0 (mixed with viruses), 6, and 24 h after the initial virus inoculation. All injections were performed under inhalational anesthesia with isoflurane. Each mouse was checked for neurological symptoms and weighed daily. The ethical endpoint was defined as <75% of their maximum weight because most mice would die within 24 h. On attaining this endpoint, the mice were sacrificed by cervical dislocation under inhalational anesthesia with isoflurane. In this experiment, five mice died of natural causes before the ethical endpoint; however, all mice had neurological symptoms and 9.5%, 13.2%,14.5%, 15.8%, 16.4% weight loss (one each) relative to their maximum weight. This study was approved by the control of the Animal Research Committee in accordance with the Guidelines on Animal Experiments in Fukushima Medical University and the Rules for the Protection and Care of Animals (approval number: 23038).

[10] = selectivity index, ratio of CC50 relative to EC50

Q: With `CC[C@H](C)[C@H](NC(=O)[C@H](CCC(=O)O)NC(=O)[C@H](CCC(=O)O)NC(=O)[C@H](CO)NC(=O)[C@H](CCCCN)NC(=O)[C@H](CCCCN)NC(=O)[C@H](CC(C)C)NC(=O)[C@H](CC(C)C)NC(=O)[C@H](CCC(=O)O)NC(=O)[C@H](CCC(=O)O)NC(=O)[C@H](C)NC(=O)[C@H](CCCCN)NC(=O)[C@H](CCCCN)NC(=O)[C@H](CC(C)C)NC(=O)[C@H](CCCCN)NC(=O)[C@H](CCC(=O)O)NC(=O)[C@H](CCC(=O)O)NC(=O)[C@H](C)NC(=O)[C@H](CCCCN)NC(=O)[C@H](CCCCN)NC(=O)[C@H](CC(C)C)NC(=O)[C@H](CC(N)=O)NC(=O)[C@H](CCC(=O)O)NC(=O)[C@H](CCC(=O)O)NC(=O)[C@@H](NC(C)=O)C(C)C)C(=O)N[C@@H](CC(C)C)C(=O)N[C@@H](CCCCN)C(=O)N[C@@H](CCCCN)C(=O)N[C@@H](CCSC)C(=O)N[C@@H](CCC(=O)O)C(=O)N[C@@H](CCC(=O)O)C(=O)N[C@@H](CC(C)C)C(=O)N[C@@H](CO)C(=O)N[C@@H](CCCCN)C(=O)N[C@@H](CCCCN)C(N)=O` [Peptide M2EK] (Ac-VEENLKKAEEKLKKAEELLKKSEEILKKMEELSKK-NH2) as the molecule, how does the “CC50, SSPE virus (Vero cells)” value [1] read?
A: >100000 nM

Q: And the “CC50, measles virus (Vero cells)” value [1]?
A: >100000 nM

Q: What about the “viral RNA copies in whole brain, lower than in M1-treated mice” value [2] of the same molecule?
A: approximately four

Q: What about the “viral RNA copies in whole brain, lower than in enfuvirtide-treated mice” value [2] of the same molecule?
A: approximately three

Q: And the EC50 ([3]; plaque reduction, MV Edmonston strain, mean ± SD)?
A: 100 ± 70 nM

Q: What about the “SI, measles virus (Vero cells)” value [3, 10] of the same molecule?
A: >989

Q: What about the “viral inhibitory effect, peptide added post-infection (post-entry)” value ([4]; peptide 10 μM overlaid at distinct time points after adsorption) of the same molecule?
A: observed in a time-dependent manner, particularly within 24 h

Q: And the “viral plaque numbers, peptide added before viral adsorption or at the same time as virus inoculation” value ([4]; peptide 10 μM, pretreatment 37°C 30 min or simultaneous with SSPE virus 0°C 30 min, compared with control)?
A: no reduction in viral plaque numbers

Q: And the “CC50, SSPE virus (Vero/SLAM cells)” value [5]?
A: >100000 nM

Q: And the survival rate [6]?
A: 67%

Q: And the “inhibition of plaque formation compared with the control group, SSPE Yamagata-1 strain (peptide screening)” value ([7]; peptide 10 μM, Vero cells and Vero/SLAM cells (Fig 2C), duplicate, at least twice independently)?
A: > 97%

Q: And the EC50 ([7]; plaque reduction, SSPE Yamagata-1 strain, Vero cells, mean ± SD)?
A: 50 ± 30 nM

Q: And the “SI, SSPE virus (Vero cells)” value ([7]; selectivity index, ratio of CC50 relative to EC50, Vero cells)?
A: >2041

Q: What about the EC50 ([8]; plaque reduction, SSPE Yamagata-1 strain, mean ± SD) of the same molecule?
A: 20 ± 10 nM

Q: And the “SI, SSPE virus (Vero/SLAM cells)” value [8, 10]?
A: >6579

Q: And the “survival of mice administered with peptides alone, with no symptoms” value [9]?
A: > 45 days
